# Measured values taken from article PMC3705412, “PTP1B Inhibitory and Anti-Inflammatory Effects of Secondary Metabolites Isolated from the Marine-Derived Fungus Penicillium sp. JF-55” (Marine Drugs, 2013).
# pIC50: −log10 of the molar value.
# Test system: COX-2-derived PGE2 production in murine peritoneal macrophages
# Assay: PGE2 production in LPS-stimulated macrophages, ELISA
# Format: cell-based, murine (C57BL/6 mice)
# Details: Mus musculus, Peritoneal macrophage; pre-treated 12 h, LPS 1 μg/mL 18 h
# Experimental: C57BL/6 mice were purchased from Orient Bio Co. (Sungnam, Kyung-Kido, Korea). TG-elicited peritoneal macrophages were harvested four days after intraperitoneal (i.p.) injection of 3 mL of TG [37]. Peritoneal lavage was performed using 8 mL of Hanks’ Balanced Salt Solution containing 10 U/mL heparin. The cells were distributed in Roswell Park Memorial Institute medium (RPMI) supplemented with 10% heat-inactivated FBS, in 6-well tissue culture plates (5 × 10^6 cells/mL). The level of PGE2, TNF-α or IL-1β present in each sample was determined using a commercially available kit from R & D Systems. The assay was performed according to the manufacturer’s instructions. Briefly, murine peritoneal macrophages were cultured in 24-well plates, pre-incubated for 12 h with different concentrations of compounds 1–3, and then stimulated for 18 h with LPS. The cell culture supernatants were then immediately collected after treatment and centrifuged at 13,000× g for 2 min to remove particulate matter. The medium was added to a 96-well plate pre-coated with affinity-purified PGE2-specific polyclonal antibodies or the medium was added to a 96-well plate pre-coated with affinity-purified polyclonal antibodies that were specific to mouse TNF-α or IL-1β. An enzyme-linked polyclonal antibody specific for PGE2, mouse TNF-α or IL-1β was added to the wells for 20 h, followed by a final wash to remove any unbound antibody-enzyme reagent. A substrate solution was added, and the intensity of the color produced, which was measured at 450 nm (the correction wavelength was set at 540 nm or 570 nm), was proportional to the amount of PGE2, TNF-α or IL-1β present.
smiles,measurement,value
"COc1cc(/C=C/c2ccccc2)oc(=O)c1C [Penstyrylpyrone (1), penstyrylpyrone]",pIC50,5.03
